Results from ChEMBL document CHEMBL1133344, “SAR studies of 2-o-substituted-benzoyl- and 2-alkanoyl-cyclohexane-1,3-diones as inhibitors of 4-hydroxyphenylpyruvate dioxygenase” (Bioorg Med Chem Lett, 2000).

molecular target: T1, 4-hydroxyphenylpyruvate dioxygenase (Sus scrofa, UniProt Q02110); test: In vitro inhibition of 4-hydroxyphenylpyruvate dioxygenase obtained from purified pig liver by enol-borate method
T1 sequence (Q02110 whole entry): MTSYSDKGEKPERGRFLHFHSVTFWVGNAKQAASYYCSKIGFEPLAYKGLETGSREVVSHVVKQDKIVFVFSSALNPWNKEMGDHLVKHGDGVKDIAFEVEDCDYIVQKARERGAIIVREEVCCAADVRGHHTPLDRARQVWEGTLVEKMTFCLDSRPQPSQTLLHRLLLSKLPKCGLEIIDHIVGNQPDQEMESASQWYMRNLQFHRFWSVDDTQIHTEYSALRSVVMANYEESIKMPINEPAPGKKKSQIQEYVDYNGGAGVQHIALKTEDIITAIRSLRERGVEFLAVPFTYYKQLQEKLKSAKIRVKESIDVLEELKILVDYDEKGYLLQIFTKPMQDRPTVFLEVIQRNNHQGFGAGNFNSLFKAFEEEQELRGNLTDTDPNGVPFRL

| SMILES | IC50 [µM] |
| --- | --- |
| O=C1CCCC(=O)C1C(=O)c1ccccc1 | 11.2 |

molecular target: T1, 4-hydroxyphenylpyruvate dioxygenase; test: Inhibition of 4-hydroxyphenylpyruvate dioxygenase of purified pig liver by enol-borate method

| SMILES | IC50 [µM] |
| --- | --- |
| O=C1CCCC(=O)C1C(=O)c1ccccc1I | 0.76 |
| CCC(=O)C1C(=O)CCCC1=O | 17.8 |
| O=C1CCCC(=O)C1C(=O)c1ccccc1C(F)(F)F | 0.25 |
| O=C1CCCC(=O)C1C(=O)c1ccccc1Cl | 0.5 |
| COc1ccccc1C(=O)C1C(=O)CCCC1=O | 11.7 |
| CC(C)C(=O)C1C(=O)CCCC1=O | 93.3 |
| CC(=O)C1C(=O)CCCC1=O | 11.2 |
| O=C1CCCC(=O)C1C(=O)C1CCCCC1 | 365 |
| O=C1CCCC(=O)C1C(=O)c1ccccc1Br | 0.56 |
| O=C1CCCC(=O)C1C(=O)c1ccccc1[N+](=O)[O-] | 0.16 |
| Cc1ccccc1C(=O)C1C(=O)CCCC1=O | 3.75 |
| O=C1CCCC(=O)C1C(=O)C1CC1 | 6 |
| O=C1CCCC(=O)C1C(=O)c1ccc(C(F)(F)F)cc1[N+](=O)[O-] [NITISINONE] | 0.04 |
